Key:
Format in all cases: in vivo, C57BL6 male mice
fracture animal model [1] = assay: 3D-micro CT of tibia including fracture site (callus formation); settings: 100 μg/kg subcutaneously daily Day 1 to Day 13; tibia collected Day 14
Protocol: Five 10-week-old C57BL6 male mice were prepared for each group, and fracture model surgery was performed in the following manner (see FIG. 3). In particular, 9 days before (-D9) and 6 days before (-D6) prior to fracture model surgery (DO) in mice of each group, infrared fluorescent dyes (IR Dyes, Infra-Red dyes) were administered through a tail vein of the mice. Then, the mice were general anesthetized using isoflurane containing oxygen (O2) for fracture model surgery, and a left hind limb was shaved and sterilized for surgery. An incision of about 15 mm was made in the left hind limb in the longitudinal direction, and the tibia was exposed by obtuse-angled resection of the muscle. Then, transverse osteotomy was performed using disc-shaped dental steel bars at the midpoint of the tibia. After repositioning the fracture site, the entire length of a bone marrow lumen was made internally stabilized. After washing it with saline, the skin was sutured with nylon sutures. In particular, the fracture animal models prepared in Example 2 was divided into a control group, PTH(1-34), monomeric [[…]]PTH(1-34), and dimeric [[…]]PTH(1-34) administration groups (n=5 animals per group). […] The collected shin bones were imaged and analyzed using 3D-micro CT (Microfocus X-ray CT system SMX-90CT, Shimadzu, Japan) equipment.

fracture animal model [2] = assay: IVIS imaging of fracture site in fracture animal model; settings: 100 μg/kg subcutaneously daily Day 1 to Day 13 after fracture surgery; imaged Day 4, 7, 11, 14
Protocol: Five 10-week-old C57BL6 male mice were prepared for each group, and fracture model surgery was performed in the following manner (see FIG. 3). In particular, 9 days before (-D9) and 6 days before (-D6) prior to fracture model surgery (DO) in mice of each group, infrared fluorescent dyes (IR Dyes, Infra-Red dyes) were administered through a tail vein of the mice. Then, the mice were general anesthetized using isoflurane containing oxygen (O2) for fracture model surgery, and a left hind limb was shaved and sterilized for surgery. An incision of about 15 mm was made in the left hind limb in the longitudinal direction, and the tibia was exposed by obtuse-angled resection of the muscle. Then, transverse osteotomy was performed using disc-shaped dental steel bars at the midpoint of the tibia. After repositioning the fracture site, the entire length of a bone marrow lumen was made internally stabilized. […] On Day 4, Day 7, Day 11, and Day 14 after the surgery, fracture sites of mice per each group were photographed and analyzed using IVIS Lumina XR (Caliper Life Sciences, USA) equipment and Living Image software. The results as shown in FIG. 4 confirmed that when the dimeric [[…]]PTH(1-34) was administered, an intensity of fluorescence was increased at the site where the fracture was healing. […] Therefore, intensifying of the fluorescence means that bone formation increased.

[3] = system: trabecular bones of the femurs; assay: micro-CT of femur of opposite limb (trabecular bone formation); settings: 100 μg/kg subcutaneously daily Day 1 to Day 13, Day 14, compared with control, PTH(1-34) and monomeric [Cys25]PTH(1-34) groups
Protocol: Five 10-week-old C57BL6 male mice were prepared for each group, and fracture model surgery was performed in the following manner (see FIG. 3). In particular, 9 days before (-D9) and 6 days before (-D6) prior to fracture model surgery (DO) in mice of each group, infrared fluorescent dyes (IR Dyes, Infra-Red dyes) were administered through a tail vein of the mice. Then, the mice were general anesthetized using isoflurane containing oxygen (O2) for fracture model surgery, and a left hind limb was shaved and sterilized for surgery. An incision of about 15 mm was made in the left hind limb in the longitudinal direction, and the tibia was exposed by obtuse-angled resection of the muscle. Then, transverse osteotomy was performed using disc-shaped dental steel bars at the midpoint of the tibia. After repositioning the fracture site, the entire length of a bone marrow lumen was made internally stabilized. After washing it with saline, the skin was sutured with nylon sutures. In particular, the fracture animal models prepared in Example 2 was divided into a control group, PTH(1-34), monomeric [[…]]PTH(1-34), and dimeric [[…]]PTH(1-34) administration groups (n=5 animals per group). […] In addition, the femurs of an opposite limb of the animal models were collected and analyzed by micro-CT equipment to evaluate the degree of bone formation in the trabecular bones of the femurs.

## dimeric [Cys25]PTH(1-34): Dimeric form of parathyroid hormone fragment PTH(1-34) with Arg25 substituted by Cys (SEQ ID NO: 1), disulfide bond between cysteines
Fracture animal model [1]
  callus formation (3D-micro CT, FIG. 6): promoted
  callus volume (FIG. 7): notably increased
Fracture animal model [2]
  bone formation, average of photon flux (FIG. 5): significantly increased
  intensity of fluorescence at the site where the fracture was healing (IVIS imaging, FIG. 4): increased
[3]
  bone formation in the trabecular bones of the femurs (micro-CT, FIG. 8): greatest increase
